In ChEMBL document CHEMBL5154799, “Discovery of a Novel Stilbene Derivative as a Microtubule Targeting Agent Capable of Inducing Cell Ferroptosis” (J Med Chem, 2022):
Activity calls are given as the source filed them. The rule behind the calls is not given here.

Experiments:
[1] = Selectivity ratio of IC50 for cytotoxicity against human L02 cells assessed as reduction in cell viability to IC50 for cytotoxicity against human A549 cells assessed as reduction in cell viability; type: toxicity, cell-based; details: L02 cells versus A549 cells
[2] = Half life in ICR mouse at 10 mg/kg, po single administration measured for 24 hrs post treatment by LC-MS/MS analysis; type: ADME, organism-based; details: in vivo
[3] = Resistance index, ratio of IC50 for antiproliferative activity against human vincristine-resistant HCT-8/VCR cells to IC50 for antiproliferative activity against HCT-8 cells; type: functional
A549 [4] = test: Induction of ferroptosis in human A549 cells assessed as accumulation of superoxide anions incubated for 24 hrs by DCFH-DA staining based fluorescence microscopy; type: functional, cell-based; details: dose 5-10 nM, DDE = dose-dependent effect
A549 [5] = test: In vivo antitumor activity against human A549 cells xenografted in athymic nude BALB/c mouse assessed as tumor growth inhibition at 10 mg/kg measured after 30 days relative to control; type: functional; details: A549, 720 h, time 30 day, read-out: TGI
[6] = Toxicity in human A549 cells xenografted in athymic nude BALB/c nude mouse assessed as morphological changes in spleen at 10 mg/kg, ip measured after 30 days by H and E staining based histological analysis; type: organism-based; details: in vivo, 720 h, time 30 day
SMMC-7721 = test: Antiproliferative activity against human SMMC-7721 cells assessed as inhibition of cell proliferation incubated for 2 hrs by CCK-8 assay; type: functional, cell-based; details: DDE = dose-dependent effect
A549 [7] = test: Cell cycle arrest in human A549 cells assessed as downregulation of Cdc2 expression at 5 to 20 nM incubated for 24 to 48 hrs by Western blot analysis; type: functional, cell-based; details: dose 5-20 nM, time 24-48 hrs
A549 [8] = test: Antiproliferative activity against human A549 cells assessed as cell viability incubated for 48 hrs by MTT assay; type: functional, cell-based; details: A549, 48 h

## C=C(c1cc(OC)c(OC)c(OC)c1)c1ccc(OC)c(O)c1NC(=O)CO
[1]
  selectivity ratio: 145
[2]
  half-life: 2.12 h
[3]
  Ratio IC50: 1.75
A549 [4]
  Activity: Dde
A549 [5]
  inhibition in vivo at 10 mg/kg: 78.6%
[6]
  Activity: Non-Toxic
SMMC-7721
  Activity: Dde
A549 [7]
  Activity: Active
A549 [8]
  IC50: 10 nM
